10 compounds from patent US10981932B2, “Macrocyclic indole derivatives” (Bayer Aktiengesellschaft, priority 2016, dated 2021) can be followed below.

One data set concerns the target MCL-1 (Homo sapiens, UniProt Q07820). The data set is described as follows: Protein-protein interaction assay MCL-1/Noxa BH3 peptide (MCL-1 assay), TR-FRET. Type of data set: binding. Particulars: MBP-MCL-1 / Noxa BH3-derived peptide, median. The gist of the method:
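IC50 came from a 4-parameter fit of the normalized 665/620 nm TR-FRET ratio (anti-MBP Eu-cryptate/streptavidin-XL665). Compounds (0.1 nM–20 μM, duplicates) were preincubated 10 min at 22 °C with 1 nM MBP-MCL-1 in pH 7 Tris/NaCl/KF buffer, then read after 1 h at 22 °C plus overnight at 4 °C.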

For data set [1], the system named is SUDHL5. Description: Induction of caspase-3/7 activity (Caspase-Glo 3/7), SUDHL5. Type of data set: cell-based. Particulars: caspase-3/7 induction, SUDHL5 cells, 3 h treatment; median. The gist of the method:
(§1)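 DLBCL lines SUDHL5 and SUDHL10 treated with compounds for 3 h at 37 °C; caspase-3/7 activity read by Caspase-Glo 3/7 luminescence. Medium-only background subtracted; EC50 fitted with bottom fixed at 1 and top fixed at the reference compound's maximal induction.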

Data set [2] deals with SUDHL10. Description: Induction of caspase-3/7 activity (Caspase-Glo 3/7), SUDHL10. Type of data set: cell-based. Particulars: caspase-3/7 induction, SUDHL10 cells, 3 h treatment, median. The essentials:
as §1

Data set [3] concerns SUDHL5. The data set is described as follows: Anti-proliferative effect (CellTiter-Glo, 72 h), SUDHL5. Type of data set: cell-based. Particulars: SUDHL5 cells, antiproliferation, median, read-out: Antiproli SUDHL5 [M] (median). The gist of the method: (§2)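 Cells plated and incubated with compounds for 72 h at 37 °C, with a parallel day 0 reference plate for time-zero signal. Viability read by CellTiter-Glo luminescence after 10 min, measured identically on the day 0 and 72 h plates.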
Background: In ATP-based viability assays light output follows the ATP content of the culture.

The next data set concerns A2780. Description: Anti-proliferative effect (CellTiter-Glo, 72 h), A2780. The data set is classed as cell-based. Conditions: A2780 cells, median, read-out: IC50 antiproliferation assay A2780 [M] (median). The essentials: as §2
A further data set relates to MV-4-11. Description: Anti-proliferative effect (CellTiter-Glo, 72 h), MV-4-11. Type of data set: cell-based. Conditions: MV-4-11 cells, median, read-out: IC50 antiproliferation assay MV-4-11 [M] (median). The gist of the method:
as §2

The test system of data set [4] is SUDHL5. Description: Induction of cytotoxicity (CellTiter-Glo, 5 h), SUDHL5. Conditions: read-out: Cytotox SUDHL5 [M] (median), SUDHL5 cells, cytotoxicity induction, CellTiter-Glo, median.
Data set [5] concerns SUDHL10. Description: Induction of cytotoxicity (CellTiter-Glo, 5 h), SUDHL10.
The mark [6] stands for this setting: read-out: Cytotox SUDHL10 [M] (median), SUDHL10 cells, cytotoxicity induction, CellTiter-Glo, 5 h incubation, median.
Setting [7] is: read-out: Cytotox SUDHL10 [M] (median), SUDHL10 cells, cytotoxicity induction, CellTiter-Glo, 5 h, median.
Setting [8] is: Homo sapiens, SU-DHL-5, 72 h, 72 h.
[9] abbreviates: Homo sapiens, SU-DHL10, 5 h, read-out: Cytotox SUDHL10 [M] (median), SUDHL10 cells, cytotoxicity induction, CellTiter-Glo, 5 h, median.

Several values for one entry are separate records, joined by “and”; a condition that tells them apart may be missing. Equal values may be shown once. Where a name gives a salt, the structure may show the parent alone. Read-outs that look alike come from different tables or passages of the source.

Chain of MCL-1 (Q07820 whole entry): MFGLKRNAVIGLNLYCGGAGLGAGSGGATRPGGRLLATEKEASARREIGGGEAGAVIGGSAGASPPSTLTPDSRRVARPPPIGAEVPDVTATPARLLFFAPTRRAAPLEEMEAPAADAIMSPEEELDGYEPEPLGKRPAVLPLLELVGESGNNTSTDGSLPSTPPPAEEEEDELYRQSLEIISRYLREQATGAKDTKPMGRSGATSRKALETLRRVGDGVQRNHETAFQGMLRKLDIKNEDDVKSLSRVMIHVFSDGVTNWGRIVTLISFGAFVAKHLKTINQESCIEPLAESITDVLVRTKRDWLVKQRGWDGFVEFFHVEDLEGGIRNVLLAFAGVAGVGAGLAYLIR

A word on the EC50: it is the concentration giving half of the maximal effect. Low values mean a more potent agent, high ones a less potent agent. For the compound `CCc1c2c(nn1C)COCCCCn1c(C(=O)O)c(CCCOc3cccc4cc(F)ccc34)c3cccc-2c31` (single isomer, unassigned) [Example 283], the IC50 at MCL-1 stood at 0.0444 µM; in the data set with SUDHL5 [3] (72 h incubation) it was 8.33e-06 M; in the data set with A2780, 1.5e-05 M; with MV-4-11, 1.46e-05 M; in the data set with SUDHL5 [4] (5 h incubation) it was 2.17e-05 M; in the data set on SUDHL10 [5] (setting [6]), 3.05e-05 M. Also, the EC50 in the data set with SUDHL5 [1] was 30.7 µM and > 33 µM; in the data set on SUDHL10 [2], over 33 µM.
On to `Cc1c2c(nn1CCN1CCOCC1)COCCCCn1c(C(=O)O)c(CCCOc3cccc4cc(F)ccc34)c3cccc-2c31` (single isomer, unassigned) [Example 286, (−)-7-{3-[(6-fluoronaphthalen-1-yl)oxy]propyl}-3-methy-2-[2-(morpholin-4-yl)ethyl]-2,10,11,12,13,15-hexahydropyrazolo[4′,3′:9,10][1,6]oxazacycloundecino[8,7,6-hi]indole-8-carboxylic acid-N-ethylethanamine Salt], for which the IC50 on MCL-1 was 0.0272 µM; in the data set on SUDHL5 [3] (72 h incubation), 5.11e-06 M; with A2780, 1.26e-05 M; in the data set on MV-4-11, 1.73e-05 M; with SUDHL5 [4] (5 h incubation), 1.2e-05 M; in the data set with SUDHL10 [5] (setting [6]), over 3.3e-05 M. For the same compound, the results for the half-maximal effective concentration (EC50) with SUDHL5 [1] and in the data set on SUDHL10 [2] were 11.8 µM and over 33 µM, respectively.
As for `CCc1nn(C)c2c1-c1cccc3c(CCCOc4cccc5cc(F)ccc45)c(C(=O)O)n(c13)CCCCOC2` (single isomer, unassigned) [Example 289, (−)-3-ethyl-7-{3-[(6-fluoronaphthalen-1-yl)oxy]propyl}-1-methyl-1,10,11,12,13,15-hexahydropyrazolo[4′,3′:9,10][1,6]oxazacycloundecino[8,7,6-hi]indole-8-carboxylic Acid], the IC50 is 0.106 µM at MCL-1; 1.05e-05 M in the data set on SUDHL5 [3] (72 h); 2.23e-05 M in the data set on A2780; 1.89e-05 M in the data set with MV-4-11; 2.9e-05 M and > 3.3e-05 M in the data set on SUDHL5 [4] (5 h); over 3.3e-05 M with SUDHL10 [5] (setting [7]). Also, the 50% effective concentration (EC50) in the data set with SUDHL5 [1] and with SUDHL10 [2] was over 33 µM throughout.
For the compound `Cc1ccc2c(CCCOc3cccc4cc(F)ccc34)c(C(=O)O)n3c2c1-c1c(nn(CCN2CCOCC2)c1C)COCCCC3` (single isomer, unassigned) [Example 293, (+)-7-{3-[(6-fluoronaphthalen-1-yl)oxy]propyl}-3,4-dimethyl-2-[2-(morpholin-4-yl)ethyl]-2,10,11,12,13,15-hexahydropyrazolo[4′,3′:9,10][1,6]oxazacycloundecino[8,7,6-hi]indole-8-carboxylic acid-N-ethylethanamine Salt], the IC50 on MCL-1 was found to be 0.000676 µM; in the data set with SUDHL5 [3] (72 h) it was 6.43e-07 M; in the data set with A2780 (Homo sapiens, A2780, 72 h), 1.08e-05 M; in the data set on MV-4-11, 2.08e-06 M; in the data set with SUDHL5 [4] (5 h), 4.23e-07 M; with SUDHL10 [5] (setting [7]) it was 9.88e-07 M. Besides, the concentration for a half-maximal effect (EC50) turned out to be 0.309 µM in the data set on SUDHL5 [1] and 0.947 µM in the data set on SUDHL10 [2].
Turning to `Cc1ccc2c(CCCOc3cccc4cc(F)ccc34)c(C(=O)O)n3c2c1-c1c(nn(CCN2CCOCC2)c1C)COCCCC3` (single isomer, unassigned) [Example 294, (−)-7-{3-[(6-fluoronaphthalen-1-yl)oxy]propyl}-3,4-dimethyl-2-[2-(morpholin-4-yl)ethyl]-2,10,11,12,13,15-hexahydropyrazolo[4′,3′:9,10][1,6]oxazacycloundecino[8,7,6-hi]indole-8-carboxylic acid-N-ethylethanamine Salt], the IC50 against MCL-1 was determined as 0.00579 µM; with SUDHL5 [3] (72 h), 5.96e-06 M; in the data set on A2780, 1.88e-05 M; in the data set on MV-4-11, 1.53e-05 M; in the data set with SUDHL5 [4] (5 h), 5.95e-06 M; in the data set with SUDHL10 [5] (setting [7]), 1.08e-05 M. Also, the values for the EC50 with SUDHL5 [1] and in the data set on SUDHL10 [2] were 6.95 µM and 10.8 µM, respectively.
Regarding `Cc1c2c(nn1C)COCCCCn1c(C(=O)O)c(CCCOc3cccc4cc(Cl)ccc34)c3cccc-2c31` (single isomer, unassigned) [Example 296, (+)-7-{3-[(6-chloronaphthalen-1-yl)oxy]propyl}-2,3-dimethyl-2,10,11,12,13,15-hexahydropyrazolo[4′,3′:9,10][1,6]Oxazacycloundecino[8,7,6-hi]indole-8-carboxylic acid-N-ethylethanamine Salt], the IC50 stood at 0.00331 µM against MCL-1; 5.2e-06 M in the data set on SUDHL5 [3] (setting [8]); 2.07e-05 M in the data set with A2780 (Homo sapiens, A2780, 72 h); 1.52e-05 M in the data set with MV-4-11 (Homo sapiens, MV4-11, 72 h); 5.31e-06 M in the data set on SUDHL5 [4] (5 h); 1.43e-05 M in the data set with SUDHL10 [5] (setting [9]). The EC50 with SUDHL5 [1] is 3.23 µM; in the data set with SUDHL10 [2] (Homo sapiens, SU-DHL10, 3 h), 18.7 µM.
Regarding `Cc1c2c(nn1C)COCCCCn1c(C(=O)O)c(CCCOc3cccc4cc(Cl)ccc34)c3cccc-2c31` (single isomer, unassigned) [Example 297, (−)-7-{3-[(6-chloronaphthalen-1-yl)oxy]propyl}-2,3-dimethyl-2,10,11,12,13,15-hexahydropyrazolo[4′3′:9,10][1,6]oxazacycloundecino[8,7,6-hi]indole-8-carboxylic acid-N-ethylethanamine Salt], the IC50 at MCL-1 is 0.126 µM; in the data set with SUDHL5 [3] (72 h) it was 5.16e-06 M; in the data set on A2780, 1.33e-05 M; with MV-4-11 it was 1.9e-05 M; in the data set with SUDHL5 [4] (5 h), 2.83e-05 M; in the data set with SUDHL10 [5] (setting [7]) it was 2.77e-05 M. Besides, the EC50 in the data set on SUDHL5 [1] and with SUDHL10 [2] was over 33 µM in each case.
`CCc1nn(C)c2c1-c1cccc3c(CCCOc4cccc5c(F)cccc45)c(C(=O)O)n(c13)CCCCOC2` (single isomer, unassigned) [Example 299, 3-ethyl-7-{3-[(5-fluoronaphthalen-1-yl)oxy]propyl}-1-methyl-1,10,11,12,13,15-hexahydropyrazolo[4′,3′:9,10][1,6]oxazacycloundecino[8,7,6-hi]indole-8-carboxylic Acid]: the IC50 at MCL-1 was 0.166 µM; with SUDHL5 [3] (setting [8]) it was 7.39e-06 M; in the data set on A2780 (Homo sapiens, A2780, 72 h) it was 2.32e-05 M; with MV-4-11 (Homo sapiens, MV4-11, 72 h) it was 2.63e-05 M; in the data set with SUDHL5 [4] (5 h), over 3.3e-05 M; in the data set with SUDHL10 [5] (setting [9]) it was over 3.3e-05 M. Besides, the EC50 is over 33 µM in the data set on SUDHL5 [1] and over 33 µM in the data set on SUDHL10 [2] (Homo sapiens, SU-DHL10, 3 h).
Regarding `CCc1nn(C)c2c1-c1cccc3c(CCCOc4cccc5c(F)cccc45)c(C(=O)O)n(c13)CCCCOC2` (single isomer, unassigned) [Example 300, 3-ethyl-7-{3-[(5-fluoronaphthalen-1-yl)oxy]propyl}-1-methyl-1,10,11,12,13,15-hexahydropyrazolo[4′3′:9,10][1,6]oxazacycloundecino[8,7,6-hi]indole-Carboxylic Acid], the IC50 was 0.00127 µM against MCL-1; 5.13e-06 M in the data set with SUDHL5 [3] (72 h); over 3.3e-05 M in the data set with A2780; 2.15e-05 M in the data set on MV-4-11; 5.8e-06 M in the data set on SUDHL5 [4] (5 h); 2.25e-05 M with SUDHL10 [5] (setting [7]). In addition, the half-maximal effective concentration (EC50) was 3.93 µM with SUDHL5 [1] and 20.7 µM with SUDHL10 [2].
`Cn1nc2c(c1CN1CCOCC1)-c1cccc3c(CCCOc4cccc5ccccc45)c(C(=O)O)n(c13)CCCCOC2` (single isomer, unassigned; enantiomer 1) [Example 079, 2-methyl-3-(morpholin-4-ylmethyl)-7-[3-(naphthalen-1-yloxy)propyl]-2,10,11,12,13,15-hexahydropyrazolo[4′,3′:9,10][1,6]oxazacycloundecino[8,7,6-hi]indole-8-carboxylic acid-N-ethylethanamine Salt (Enantiomer 1)]: the IC50 came out at 0.00325 µM against MCL-1; 6.7e-06 M in the data set on SUDHL5 [3] (72 h incubation); 1.66e-05 M in the data set with A2780 (Homo sapiens, A2780, 72 h); 2.37e-06 M in the data set on MV-4-11; 4.24e-06 M in the data set with SUDHL5 [4] (5 h incubation); 8.83e-06 M in the data set on SUDHL10 [5] (setting [6]). The 50% effective concentration (EC50) in the data set with SUDHL5 [1] is 3.85 µM; in the data set with SUDHL10 [2] it was 9.85 µM.
